In ChEMBL document CHEMBL6177961, “Structure-Based Analysis of Semisynthetic Anti-TB Rufomycin Analogues” (J Nat Prod, 2025) one finds MIC, IC50 and selectivity ratio data, which are given here for ten compounds.

Converted amounts (≈) assume the structure as drawn. Some results are limits rather than exact numbers.

Data set [1] has as its system Mycobacterium tuberculosis. Nature of the data set: Antimycobacterial activity against Mycobacterium tuberculosis H37Rv ATCC 27294 assessed as reduction in bacterial growth by microplate alamar blue assay. It is filed as functional.
In the next data set the test system is Mycobacterium avium. Nature of the data set: Antimycobacterial activity against Mycobacterium avium assessed as reduction in bacterial growth. It is filed as functional.
For data set [2], the system named is Mycobacteroides abscessus. Nature of the data set: Antimycobacterial activity against Mycobacterium abscessus ATCC 19977 assessed as reduction in bacterial growth by microplate Alamar blue assay. It is filed as functional.
Data set [3] is described as follows: Cytotoxicity against African green monkey Vero cells. It is filed as toxicity, cell-based. As to conditions: African green monkey (Chlorocebus sabaeus).
A short description of data set [4]: Selectivity index, ratio of IC50 for cytotoxicity against African green monkey Vero cells to MIC for antimycobacterial activity against Mycobacterium tuberculosis H37Rv ATCC 27294. It is filed as toxicity, cell-based. As to conditions: read-out: Selectivity Index.

Turning to `C/C=C/C[C@@H]1NC(=O)[C@H](CC(C)C)N2C=C(C)C[C@@H](C2=O)N(C)C(=O)[C@H](C)NC(=O)[C@H](Cc2ccc(OC)c([N+](=O)[O-])c2)NC(=O)[C@H](CC(C)C)N(C)C(=O)[C@H](Cc2cn(C(C)(C)[C@H]3CO3)c3ccccc23)NC1=O`, the MIC in data set [1] was 0.073 µM (≈ 0.0758 µg/mL); in the data set on Mycobacterium avium it was above 10 µM; in data set [2], 2.3 µM (≈ 2.39 µg/mL). The IC50 in data set [3] stood at 98 µM. In addition, the selectivity ratio in data set [4] worked out at 1300.

As for `C/C=C/C[C@@H]1NC(=O)[C@H](CC(C)C)N2C=C(C)C[C@@H](C2=O)N(C)C(=O)[C@H](C)NC(=O)[C@H](Cc2ccc(O)c(N)c2)NC(=O)[C@H](CC(C)C)N(C)C(=O)[C@H](Cc2cn(C(C)(C)[C@H](O)CCl)c3ccccc23)NC1=O`, the MIC in data set [1] was 0.89 µM (≈ 0.917 µg/mL); with Mycobacterium avium, above 10 µM; in data set [2] it was 8.3 µM (≈ 8.55 µg/mL). In data set [3], this compound returned an IC50 above 100 µM. The selectivity ratio in data set [4] was above 110.

Regarding `C/C=C/C[C@@H]1NC(=O)[C@H](CC(C)C)N2C(=O)[C@H](CC(C)[C@H]2OC)N(C)C(=O)[C@H](C)NC(=O)[C@H](Cc2ccc(O)c([N+](=O)[O-])c2)NC(=O)[C@H](CC(C)C)N(C)C(=O)[C@H](Cc2cn(C(C)(C)[C@H]3CO3)c3ccccc23)NC1=O` (stereo not given in full), the figures for the minimal inhibitory concentration (MIC) (in data set [1]; with Mycobacterium avium; in data set [2]) were 0.002 µM (≈ 0.00211 µg/mL), 1.4 µM (≈ 1.48 µg/mL) and 0.15 µM (≈ 0.158 µg/mL), respectively. Moreover, the IC50 in data set [3] was above 100 µM. In data set [4], the selectivity ratio is above 53000.

`C/C=C/C[C@@H]1NC(=O)[C@H](CC(C)C)N2C(=O)[C@H](CC(C)[C@H]2OCCC)N(C)C(=O)[C@H](C)NC(=O)[C@H](Cc2ccc(O)c([N+](=O)[O-])c2)NC(=O)[C@H](CC(C)C)N(C)C(=O)[C@H](Cc2cn(C(C)(C)[C@H](O)CCl)c3ccccc23)NC1=O` (stereo not given in full): the MIC in data set [1] is 0.75 µM (≈ 0.841 µg/mL); in the data set with Mycobacterium avium, above 10 µM; in data set [2], 2.1 µM (≈ 2.35 µg/mL). This compound also yielded an IC50 in data set [3] above 10 µM. Further, the selectivity ratio in data set [4] is above 13.

Consider `C/C=C/C[C@@H]1NC(=O)[C@H](CC(C)C)N2C=C(C)C[C@@H](C2=O)N(C)C(=O)[C@H](C)NC(=O)[C@H](Cc2ccc(OC(C)=O)c([N+](=O)[O-])c2)NC(=O)[C@H](CC(C)C)N(C)C(=O)[C@H](Cc2cn(C(C)(C)[C@H](O)CCl)c3ccccc23)NC1=O`, for which the MIC in data set [1] is 0.022 µM (≈ 0.0243 µg/mL); with Mycobacterium avium, 5.8 µM (≈ 6.4 µg/mL); in data set [2], 1.1 µM (≈ 1.21 µg/mL). In data set [3], this compound had an IC50 above 100 µM. Also, the selectivity ratio in data set [4] is above 4500.

Turning to `C/C=C/C[C@@H]1NC(=O)[C@H](CC(C)C)N2C=C(C)C[C@@H](C2=O)N(C)C(=O)[C@H](C)NC(=O)[C@H](Cc2ccc(OC(=O)c3ccccc3)c([N+](=O)[O-])c2)NC(=O)[C@H](CC(C)C)N(C)C(=O)[C@H](Cc2cn(C(C)(C)[C@H](O)CCl)c3ccccc23)NC1=O`, the values for the MIC (in data set [1]; in the data set with Mycobacterium avium; in data set [2]) were 0.052 µM (≈ 0.0606 µg/mL), above 10 µM and 2 µM (≈ 2.33 µg/mL), respectively. Further, the IC50 in data set [3] is above 100 µM. The selectivity ratio in data set [4] was above 1900.

In the case of `C/C=C/C[C@@H]1NC(=O)[C@H](CC(C)C)N2C=C(C)C[C@@H](C2=O)N(C)C(=O)[C@H](C)NC(=O)[C@H](Cc2ccc(O)c([N+](=O)[O-])c2)NC(=O)[C@H](CC(C)C)N(C)C(=O)[C@H](Cc2cn(C(C)(C)[C@H](O)CCl)c3ccccc23)NC1=O`, the MIC was determined as 0.019 µM (≈ 0.0202 µg/mL) in data set [1], 4.8 µM (≈ 5.09 µg/mL) with Mycobacterium avium and 1.1 µM (≈ 1.17 µg/mL) in data set [2]. Moreover, in data set [3], the IC50 was above 100 µM.

Turning to `C/C=C/C[C@@H]1NC(=O)[C@H](CC(C)C)N2C(=O)[C@H](CC(C)[C@H]2O)N(C)C(=O)[C@H](C)NC(=O)[C@H](Cc2ccc(OC(C)=O)c([N+](=O)[O-])c2)NC(=O)[C@H](CC(C)C)N(C)C(=O)[C@H](Cc2cn(C(C)(C)[C@H]3CO3)c3ccccc23)NC1=O` (mixture of isomers), the selectivity ratio in data set [4] was 11000.

In the case of `NNC(=O)c1ccncc1` [ISONIAZID], the figures for the MIC in data set [1] and in data set [2] were 0.46 µM (≈ 0.0631 µg/mL) and above 8 µM, respectively.

As for `CO[C@H]1/C=C/O[C@@]2(C)Oc3c(C)c(O)c4c(O)c(c(/C=N/N5CCN(C)CC5)c(O)c4c3C2=O)NC(=O)/C(C)=C\C=C\[C@H](C)[C@H](O)[C@@H](C)[C@@H](O)[C@@H](C)[C@H](OC(C)=O)[C@@H]1C` [RIFAMPIN], the MIC in data set [1] is 0.03 µM (≈ 0.0247 µg/mL); in data set [2], above 4 µM. Moreover, the IC50 in data set [3] was above 122 µM.
